Test results: ChEMBL document CHEMBL3102750 (J Med Chem, 2013)

What was measured:
Type in all cases: functional, cell-based
[1] = biological target: T1, Muscarinic acetylcholine receptor M1 (Homo sapiens, UniProt P11229); assay: Negative allosteric modulation of human muscarinic acetylcholine receptor M1 expressed in CHO cells assessed as inhibition of acetylcholine-induced calcium mobilization incubated for 150 secs prior to acetylcholine induction by Fluo-4 AM staining-based fluorescence assay
T1 sequence (P11229 whole entry): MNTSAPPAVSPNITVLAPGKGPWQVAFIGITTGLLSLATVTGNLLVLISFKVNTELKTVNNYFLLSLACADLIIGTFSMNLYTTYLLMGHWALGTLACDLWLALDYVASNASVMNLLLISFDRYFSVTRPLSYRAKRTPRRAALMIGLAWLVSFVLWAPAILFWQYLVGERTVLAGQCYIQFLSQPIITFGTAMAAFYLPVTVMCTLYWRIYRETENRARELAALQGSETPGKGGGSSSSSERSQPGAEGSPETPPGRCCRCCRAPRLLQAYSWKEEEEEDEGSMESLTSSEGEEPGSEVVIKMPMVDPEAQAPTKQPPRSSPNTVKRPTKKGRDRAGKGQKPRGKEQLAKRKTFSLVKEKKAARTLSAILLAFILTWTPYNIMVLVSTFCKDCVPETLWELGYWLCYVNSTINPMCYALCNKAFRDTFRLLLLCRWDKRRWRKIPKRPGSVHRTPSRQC

[2] = biological target: T2, Muscarinic acetylcholine receptor M2 (Homo sapiens, UniProt P08172); assay: Negative allosteric modulation of human muscarinic acetylcholine receptor M2 expressed in CHO cells assessed as inhibition of acetylcholine-induced calcium mobilization incubated for 150 secs prior to acetylcholine induction by Fluo-4 AM staining-based fluorescence assay
T2 sequence (P08172 whole entry): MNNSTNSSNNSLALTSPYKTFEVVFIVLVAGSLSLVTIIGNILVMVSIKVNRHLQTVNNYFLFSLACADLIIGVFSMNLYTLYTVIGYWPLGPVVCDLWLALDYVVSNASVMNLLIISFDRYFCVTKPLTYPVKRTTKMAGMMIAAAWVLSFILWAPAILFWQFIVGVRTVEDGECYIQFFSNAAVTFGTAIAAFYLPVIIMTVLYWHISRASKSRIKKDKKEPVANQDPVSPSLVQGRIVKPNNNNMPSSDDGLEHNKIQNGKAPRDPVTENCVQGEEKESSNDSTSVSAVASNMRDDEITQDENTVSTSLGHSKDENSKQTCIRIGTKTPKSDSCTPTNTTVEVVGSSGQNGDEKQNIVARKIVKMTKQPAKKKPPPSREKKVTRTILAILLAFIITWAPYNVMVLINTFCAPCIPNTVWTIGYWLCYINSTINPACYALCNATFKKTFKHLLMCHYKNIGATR

[3] = biological target: Muscarinic acetylcholine receptor M3 (Homo sapiens, UniProt P20309); assay: Negative allosteric modulation of human muscarinic acetylcholine receptor M3 expressed in CHO cells assessed as inhibition of acetylcholine-induced calcium mobilization incubated for 150 secs prior to acetylcholine induction by Fluo-4 AM staining-based fluorescence assay
[4] = biological target: T3, Muscarinic acetylcholine receptor M4 (Homo sapiens, UniProt P08173); assay: Negative allosteric modulation of human muscarinic acetylcholine receptor M4 expressed in CHO cells assessed as inhibition of acetylcholine-induced calcium mobilization incubated for 150 secs prior to acetylcholine induction by Fluo-4 AM staining-based fluorescence assay
T3 sequence (P08173 whole entry): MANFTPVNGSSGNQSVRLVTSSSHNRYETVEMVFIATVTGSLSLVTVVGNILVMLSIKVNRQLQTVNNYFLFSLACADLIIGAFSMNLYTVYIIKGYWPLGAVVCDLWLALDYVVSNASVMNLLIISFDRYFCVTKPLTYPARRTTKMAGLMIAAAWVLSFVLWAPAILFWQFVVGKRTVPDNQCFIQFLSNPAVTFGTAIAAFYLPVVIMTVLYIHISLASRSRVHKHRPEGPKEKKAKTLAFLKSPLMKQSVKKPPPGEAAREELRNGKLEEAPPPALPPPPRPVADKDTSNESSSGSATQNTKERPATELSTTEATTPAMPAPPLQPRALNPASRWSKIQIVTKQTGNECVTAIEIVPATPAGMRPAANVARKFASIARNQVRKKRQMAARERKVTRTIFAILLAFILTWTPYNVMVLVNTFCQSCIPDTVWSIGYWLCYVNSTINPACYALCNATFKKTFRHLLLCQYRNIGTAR

[5] = biological target: T4, Muscarinic acetylcholine receptor M2 (Rattus norvegicus, UniProt P10980); assay: Negative allosteric modulation of rat muscarinic acetylcholine receptor M2 expressed in CHO cells assessed as inhibition of acetylcholine-induced calcium mobilization incubated for 150 secs prior to acetylcholine induction by Fluo-4 AM staining-based fluorescence assay
T4 sequence (P10980 whole entry): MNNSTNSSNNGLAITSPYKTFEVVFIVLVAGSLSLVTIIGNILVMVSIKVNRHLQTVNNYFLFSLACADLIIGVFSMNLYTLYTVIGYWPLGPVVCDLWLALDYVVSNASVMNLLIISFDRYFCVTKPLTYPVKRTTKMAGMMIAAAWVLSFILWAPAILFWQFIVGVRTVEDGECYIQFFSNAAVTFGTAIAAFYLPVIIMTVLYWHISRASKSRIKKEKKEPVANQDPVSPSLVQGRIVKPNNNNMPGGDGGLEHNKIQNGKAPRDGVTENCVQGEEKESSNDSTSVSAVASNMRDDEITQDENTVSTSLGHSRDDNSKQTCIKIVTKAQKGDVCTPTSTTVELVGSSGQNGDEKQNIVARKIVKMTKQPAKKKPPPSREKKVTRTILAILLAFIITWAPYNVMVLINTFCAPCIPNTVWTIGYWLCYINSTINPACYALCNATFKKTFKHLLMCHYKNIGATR

[6] = biological target: Muscarinic acetylcholine receptor M3 (Rattus norvegicus, UniProt P08483); assay: Negative allosteric modulation of rat muscarinic acetylcholine receptor M3 expressed in CHO cells assessed as inhibition of acetylcholine-induced calcium mobilization incubated for 150 secs prior to acetylcholine induction by Fluo-4 AM staining-based fluorescence assay
[7] = biological target: T5, Muscarinic acetylcholine receptor M4 (Rattus norvegicus, UniProt P08485); assay: Negative allosteric modulation of rat muscarinic acetylcholine receptor M4 expressed in CHO cells assessed as inhibition of acetylcholine-induced calcium mobilization incubated for 150 secs prior to acetylcholine induction by Fluo-4 AM staining-based fluorescence assay
T5 sequence (P08485 whole entry): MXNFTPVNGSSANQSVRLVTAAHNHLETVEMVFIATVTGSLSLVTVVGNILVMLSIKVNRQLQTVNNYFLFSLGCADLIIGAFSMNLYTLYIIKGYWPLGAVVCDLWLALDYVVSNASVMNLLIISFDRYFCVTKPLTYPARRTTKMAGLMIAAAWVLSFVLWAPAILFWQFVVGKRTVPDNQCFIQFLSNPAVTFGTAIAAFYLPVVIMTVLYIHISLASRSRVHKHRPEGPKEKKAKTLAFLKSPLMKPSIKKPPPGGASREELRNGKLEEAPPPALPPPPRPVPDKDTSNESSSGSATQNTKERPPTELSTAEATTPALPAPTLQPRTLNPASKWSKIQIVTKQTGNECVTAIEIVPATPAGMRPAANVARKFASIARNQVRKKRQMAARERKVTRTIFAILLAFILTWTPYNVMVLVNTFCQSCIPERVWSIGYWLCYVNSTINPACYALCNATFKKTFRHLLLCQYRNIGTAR

Measured: IC50

Chain of Muscarinic acetylcholine receptor M3 (Rattus norvegicus, UniProt P08483) (P08483 whole entry): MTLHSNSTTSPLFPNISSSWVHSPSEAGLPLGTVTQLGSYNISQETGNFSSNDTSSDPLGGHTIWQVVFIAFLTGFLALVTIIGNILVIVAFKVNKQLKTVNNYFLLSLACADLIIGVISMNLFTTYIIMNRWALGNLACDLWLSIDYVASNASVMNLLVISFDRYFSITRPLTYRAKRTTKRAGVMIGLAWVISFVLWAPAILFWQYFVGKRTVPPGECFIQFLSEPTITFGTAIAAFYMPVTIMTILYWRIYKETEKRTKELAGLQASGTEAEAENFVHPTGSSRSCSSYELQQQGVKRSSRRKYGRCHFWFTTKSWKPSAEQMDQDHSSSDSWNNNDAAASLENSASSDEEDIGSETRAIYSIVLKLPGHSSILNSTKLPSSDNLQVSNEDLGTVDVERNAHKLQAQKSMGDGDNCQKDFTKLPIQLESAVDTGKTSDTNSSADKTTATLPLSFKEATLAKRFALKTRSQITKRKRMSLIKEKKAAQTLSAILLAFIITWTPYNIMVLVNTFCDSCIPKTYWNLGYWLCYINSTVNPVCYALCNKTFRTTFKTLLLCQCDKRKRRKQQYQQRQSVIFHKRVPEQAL
Chain of Muscarinic acetylcholine receptor M3 (Homo sapiens, UniProt P20309) (P20309 whole entry): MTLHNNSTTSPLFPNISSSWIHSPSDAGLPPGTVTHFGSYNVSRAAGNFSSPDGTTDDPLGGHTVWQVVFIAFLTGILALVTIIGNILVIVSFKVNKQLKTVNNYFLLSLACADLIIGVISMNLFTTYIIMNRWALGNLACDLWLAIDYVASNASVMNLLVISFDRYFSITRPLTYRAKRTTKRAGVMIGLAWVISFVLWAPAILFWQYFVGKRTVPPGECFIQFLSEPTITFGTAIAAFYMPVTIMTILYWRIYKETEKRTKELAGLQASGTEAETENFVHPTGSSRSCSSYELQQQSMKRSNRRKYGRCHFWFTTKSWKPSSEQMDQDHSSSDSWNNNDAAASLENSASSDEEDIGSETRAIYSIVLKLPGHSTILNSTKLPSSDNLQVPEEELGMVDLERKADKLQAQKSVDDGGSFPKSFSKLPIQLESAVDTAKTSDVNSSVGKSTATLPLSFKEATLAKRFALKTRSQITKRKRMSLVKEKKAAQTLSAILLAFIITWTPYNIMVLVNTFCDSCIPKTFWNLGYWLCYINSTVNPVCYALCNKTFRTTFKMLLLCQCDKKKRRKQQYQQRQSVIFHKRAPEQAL

O=C(c1ccc(F)c(F)c1)N1CCN2C(=O)c3ccccc3[C@@]12c1ccc(Cl)cc1
> 30 µM: all assays above

O=C(c1ccc(F)c(F)c1)N1CCN2C(=O)c3ccccc3C12c1ccccc1 (centres undefined)
> 30 µM: all assays above
